From a melting point compilation (Tetko et al.)

SMILES | melting point [°C]
Nc1nnn[nH]1 | 200 to 204
O=C(O)CC(Br)C(=O)c1ccc(F)cc1 (configuration not stated) | 128 to 131
O=c1c2ccccc2nc2n1CCO2 | 160 to 163
COCCCNc1c(N)n(Cc2ccccc2)c(=O)[nH]c1=O | 148 to 150
NC(=O)c1ccc(Br)c(F)c1 | 167 to 169
COc1ccc(NCc2cccs2)cc1 | 71 to 73
CC(CC(=O)O)c1ccc(F)cc1 (configuration not stated) | 64 to 66
Cn1cc(S(=O)(=O)N2CCCCC2)cc1C(=O)O | 236 to 238
NNc1ccc(S(=O)(=O)NC2CC2)cc1 | 134 to 136
ON=Cc1ccc(N2CCOCC2)cc1 | 186 to 188
O=C(CCCl)Nc1ccc(N2CCCC2=O)cc1 | 194 to 196
CNc1ncccc1C#N | 87 to 89
CC(O)(c1ccc([N+](=O)[O-])cc1)C(F)(F)F (configuration not stated) | 86 to 88
CCN(CC)S(=O)(=O)c1ccc(O)c(N)c1 | 74 to 76
CCOCCS(N)(=O)=O | 30 to 32
O=C(O)C(Oc1ccc(Br)cc1Br)c1ccccc1 (configuration not stated) | 129 to 131
Cc1noc2ncnc(N)c12 | 269 to 271
Cc1nc(-c2ccc(NC(=O)OCC(F)(F)F)cc2)cc(=O)[nH]1 | 246 to 248
CC(C)N(O)C(=O)C(=O)O | 99 to 101

SMILES | melting point [°C]
O=Cc1cc(F)cc(F)c1 | 17 to 19
COc1cccc(N2CC(C(=O)O)CC2=O)c1 (configuration not stated) | 166 to 168
CC(NC1=NS(=O)(=O)c2ccccc21)C(=O)O (configuration not stated) | 220 to 222
Cc1cc(-c2nc3ccccc3n2C)c(=O)[nH]n1 | 334 to 336
Cn1cnnc1SCC(=O)Nc1cccc(C(=O)O)c1 | 231 to 233
CC(=O)N1CCCCC1C(=O)O (configuration not stated) | 137 to 139
Nc1ccc2ccoc2c1 | 51 to 53
O=C(O)C(F)(F)c1ccc(F)cc1 | 99 to 101
CC(SCC(=O)Nc1ccc(Br)cc1)C(=O)O (configuration not stated) | 139 to 141
Cc1cc(NN)nc2ccccc12 | 146 to 148
O=C(O)C1CC(=O)N(c2cccc(Cl)c2)C1 (configuration not stated) | 133 to 135
O=C1CCNc2ncccc2N1 | 263 to 265
COc1ccc2ccccc2c1-c1cc(CBr)on1 | 85 to 87
O=C(O)c1cccc(NC(=O)c2ccc3[nH]cnc3c2)c1 | 305 to 307
Nc1nnc(-c2ccc3c(c2)OCCO3)o1 | 247 to 249
O=C(O)C1CCCCN1C(=O)c1ccc(Br)c(F)c1 (configuration not stated) | 134 to 136
Cc1cc(N)nn1-c1ccc(F)cc1F | 120 to 122
O=C1C=C(O)C(=O)c2ccccc21 | 192 to 194
CC(C)n1c(C(=O)O)cc(Br)c1Br | 127 to 129

SMILES | melting point [°C]
Cc1c(C(=O)O)cc(Br)cc1S(N)(=O)=O | 213 to 215
N#Cc1ccc(CBr)c(OC(F)F)c1 | 80 to 82
Nc1cc(=O)[nH]c(=O)n1Cc1ccccc1 | 284 to 286
Cn1c(Cl)c(C=O)c2cc(C=O)ccc21 | 164 to 166
CC(C)(N)CNC(=O)OC(C)(C)C | 68 to 70
O=c1[nH]cnc2ccc(Br)cc12 | 267 to 271
Nc1cc(-c2cccc(F)c2F)n[nH]1 | 117 to 119
O=C(O)Cc1ccc(N2CCCC2=O)cc1 | 120 to 122
CS(=O)(=O)c1cccc(C(=O)c2ccc(F)cc2F)c1 | 129 to 131
COc1ccc(Cc2nnc(S)n2N)cc1OC | 177 to 179
CC(C(=O)O)S(=O)(=O)Cc1ccc(Br)cc1 (configuration not stated) | 135 to 137
O=C(O)c1cc(Cl)[nH]c(=O)c1 | 249 to 251
CC(C)c1nnc(CC#N)[nH]1 | 148 to 150
NC(=O)Cc1ccc2c(c1)CCC2 | 166 to 168
CC(C)NS(=O)(=O)c1ccc(Cl)c(C(=O)O)c1Cl | 218 to 220
O=C(O)CCNC(=O)c1cc(F)ccc1Br | 112 to 114
O=C(O)CNC(=O)c1ccc2ccccc2c1 | 171 to 175
CCCN1Cc2ccc(N)cc2C1 | 48 to 50
CC1CCN(CCCC(N)=NO)CC1 | 98 to 100
